Test results: PubChem BioAssay (NCI)
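A five-concentration, 48-hour dose response in 96-well plates underlies each endpoint, interpolated linearly between surrounding concentrations. GI50: concentration for 50% inhibition of growth. TGI denotes the concentration required for complete inhibition of growth.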

How the values were obtained:
Assay in all cases: DTP human tumour cell line panel, 48 h
A549 NSCLC = tested on: A549 NSCLC
COLO 205 colon = tested on: COLO 205 colon
HOP-92 NSCLC = tested on: HOP-92 NSCLC
MOLT-4 leukemia = tested on: MOLT-4 leukemia
NCI-H522 lung = tested on: NCI-H522 lung
OVCAR-5 ovarian = tested on: OVCAR-5 ovarian
SF-295 CNS = tested on: SF-295 CNS
SN12C renal = tested on: SN12C renal
T-47D breast = tested on: T-47D breast
UACC-257 melanoma = tested on: UACC-257 melanoma

Structure (SMILES)	TGI (A549 NSCLC)	TGI (COLO 205 colon)	TGI (HOP-92 NSCLC)	TGI (MOLT-4 leukemia)	TGI (NCI-H522 lung)	TGI (OVCAR-5 ovarian)	TGI (SF-295 CNS)	TGI (SN12C renal)	TGI (T-47D breast)	TGI (UACC-257 melanoma)	GI50 (A549 NSCLC)	GI50 (COLO 205 colon)	GI50 (HOP-92 NSCLC)	GI50 (MOLT-4 leukemia)	GI50 (NCI-H522 lung)	GI50 (OVCAR-5 ovarian)	GI50 (SF-295 CNS)	GI50 (SN12C renal)	GI50 (T-47D breast)	GI50 (UACC-257 melanoma)
NC(N)=NS(=O)(=O)c1ccc(NC(=O)c2ccc3nc4ccccc4c(Nc4ccc(S(=O)(=O)N=C(N)N)cc4)c3c2)cc1	> 100 µM	> 100 µM	> 100 µM	> 100 µM	> 100 µM	> 100 µM	> 100 µM	> 100 µM	> 100 µM	> 100 µM										
C=c1c(OC)c(OC)c(O)c2c1=c1cc([N+](=O)[O-])cc(OC)c1=N2	> 100 µM	> 100 µM	> 100 µM	> 100 µM	> 100 µM	> 100 µM	> 100 µM	> 100 µM	> 100 µM	> 100 µM										
Brc1ccc2c(-c3csc(-c4c[nH]c5ccc(Br)cc45)n3)c[nH]c2c1	19 µM	> 26.7 µM	9.27 µM	> 22.4 µM	4.95 µM	7.54 µM	10.9 µM	18.9 µM	21.3 µM	23.1 µM										
O=c1c2ccccc2nc(Nc2cccc(Cl)c2)n1/N=C/C=C/c1ccccc1	> 100 µM	> 100 µM	> 100 µM	> 100 µM	> 100 µM	> 100 µM	> 100 µM	> 100 µM	> 100 µM	> 100 µM										
N#Cc1c(-c2ccc(F)cc2)nc(N/N=C/c2c[nH]c3ccccc23)nc1N1CCOCC1	69.9 µM	18.2 µM	52.4 µM	9.63 µM	7.15 µM	74 µM	4.29 µM	> 100 µM	40 µM	4.87 µM	3.99 µM	2.37 µM	2.44 µM	1.6 µM	2.59 µM	19.5 µM	1.89 µM	16.6 µM	9.16 µM	2.2 µM
CNC(=O)N(CCC#N)[C@H]1CCCC[C@@H]1N(C(=O)NC)c1ccccc1	> 100 µM	> 100 µM	> 100 µM	> 100 µM	> 100 µM	> 100 µM	> 100 µM	> 100 µM	> 100 µM	> 100 µM										
CC(C)(C)c1cc(/C=C(\C#N)C(=O)NCCO)cc(C(C)(C)C)c1O	> 100 µM	37.2 µM	> 100 µM	59.1 µM	37 µM	62.8 µM	40.8 µM	51.6 µM	76.8 µM	35 µM										
COc1cc(I)c2c3c1OC1C34CCN(C)C(C2)C4=CC(I)C1(OC)OC (stereo not given)	> 100 µM	45.2 µM	45.6 µM	42.4 µM	44.2 µM	81.6 µM	> 100 µM	31.9 µM	31.1 µM	49.4 µM										
O=c1c(-c2ccc(Cl)cc2)nnc2n(Cc3ccccc3)c3ccccc3n12	> 100 µM	> 100 µM	42.6 µM	> 100 µM	> 100 µM	> 100 µM	49.4 µM	> 100 µM	> 100 µM	> 100 µM										
CCOC(=O)C(NC(=O)CC(C)C)(N1CCN(c2cc3c(cc2F)c(=O)c(C(=O)O)cn3C2CC2)CC1)C(F)(F)F (stereo not given)	> 100 µM	30.3 µM	25.3 µM	40.2 µM	11.9 µM	32.8 µM	61.5 µM	> 100 µM	86.7 µM	57 µM										
CCC(C)C(=O)OC1CC2(C)C(c3ccoc3)OC(=O)CC23OC2(C)OC34C(OC(=O)C(C)C)C3(O)C(OC(=O)C5(C)OC5C)C5(C)CC3(O)C(C)(C5CC(=O)OC)C14O2 (stereo not given)	> 100 µM	57.5 µM	> 100 µM	65.8 µM	> 100 µM	> 100 µM	> 100 µM	> 100 µM	> 100 µM	> 100 µM										
Nc1ccc(S(=O)(=O)Nc2nc3ccccc3nc2N2CCCCC2)cc1	> 100 µM	> 100 µM	> 100 µM	> 100 µM	> 100 µM	> 100 µM	> 100 µM	> 100 µM	> 100 µM	> 100 µM										
Clc1ccc(OCc2nnc(CCCCCCCCc3nnc(COc4ccc(Cl)cc4)n3Nc3ccccc3)n2Nc2ccccc2)cc1	> 83.3 µM	0.894 µM	77 µM	> 100 µM	34.5 µM	> 100 µM	> 100 µM	99 µM	> 100 µM	> 100 µM										
O=C1CSC(c2cccs2)N1c1nc2cc3sc(N4C(=O)CSC4c4cccs4)nc3cc2s1 (stereo not given)	> 50 µM	3.18 µM	> 50 µM	> 50 µM	> 50 µM	> 50 µM	> 50 µM	> 50 µM	> 50 µM	> 50 µM										
C=C1C(=O)O[C@@]23C1CC[C@@H](C)C2CC[C@@]1(C)OC31 (stereo not given in full)	> 100 µM	3.68 µM	24.2 µM	31.8 µM	20.2 µM	26.7 µM	48.9 µM	21.5 µM	19.2 µM	24.4 µM										
Cc1cc2ncc3c(=O)n(NS(=O)(=O)c4ccc(N)cc4)ccc3n2n1	> 100 µM	> 100 µM	> 100 µM	> 100 µM	> 100 µM	> 100 µM	> 100 µM	> 100 µM	> 100 µM	> 100 µM										
